Laboratory results taken from patent US11377441B2, “Covalent inhibitors of KRAS” (Araxes Pharma LLC, priority 2017, dated 2022).

biological target: T1, KRAS G12C 1-169, his-tagged protein, GDP-loaded (Homo sapiens, UniProt P01116, G12C); assay: Biochemical assay: covalent modification of KRAS G12C measured by mass spectrometry (RapidFire/TOF or Q-Exactive); type: binding; settings: covalent binding to (modification of) KRAS G12C after a ten minute incubation period
T1 construct: KRAS G12C 1-169, his-tagged protein, GDP-loaded
Protocol: Test compounds were prepared as 10 mM stock solutions in DMSO (Fisher cat #BP-231-100). KRAS G12C 1-169, his-tagged protein, GDP-loaded is diluted to 2 μM or 0.5 μM in buffer (20 mM Hepes, 150 mM NaCl, 1 mM MgCl2). Compounds were tested for activity as follows:
Compounds were diluted to 50× final test concentration in DMSO in 96-well storage plates. Compound stock solutions were vortexed before use and observed carefully for any sign of precipitation. Dilutions are as follow: • For 100 μM final compound concentration, compounds were diluted to 5000 μM (5 μL 10 mM compound stock+5 μL DMSO and mixed well by pipetting. • For 30 μM final compound concentration, compounds were diluted to 1500 μM (3 μL 10 mM compound stock+17 μL DMSO) and mixed well by pipetting. • For 10 μM final compound concentration, compounds were diluted to 500 μM (2 μL 10 mM compound stock+38 μL DMSO) and mixed well by pipetting. 49 μL of the stock protein solution was added to each well of a 96-well PCR plate (Fisher cat #1423027). 1 μL of the diluted 50× compounds were added to appropriate wells in the PCR plate using 12-channel pipettor. Reactions were mixed carefully and thoroughly by pipetting up/down with a 200 μL multi-channel pipettor. The plate was sealed well with aluminum plate seal, and stored in drawer at room temperature for 10 minutes, 30 minutes, 2 hours or 24 hours. 5 μL of 2% formic acid (Fisher cat #A117) in de-ionized H2O was then added to each well followed by mixing with a pipette. The plate was then resealed with aluminum seal and stored on dry ice until analyzed as described below.
The above described assays were analyzed by mass spectrometry according to one of the following two procedures:
The MS instrument was set to positive polarity, 2 GHz resolution, and low mass (1700) mode and allowed to equilibrate for 30 minutes. The instrument was then calibrated, switched to acquisition mode and the appropriate method loaded.
After another 30 minute equilibration time, a blank batch (i.e., buffer) was run to ensure equipment is operating properly. The samples were thawed at 37° C. for 10 minutes, briefly centrifuged, and transfer to the bench top. Wells A1 and H12 were spiked with 1 μL 500 μM internal standard peptide, and the plates centrifuged at 2000×g for 5 minutes. The method was then run and masses of each individual well recorded.
The masses (for which integration data is desired) for each well were pasted into the platemap and exported from the analysis. Masses for the internal standards were exported as well. The data at 50 ppm was extracted for the +19 charge state, and identity of well A1 was assigned using the internal standard spike and integrated. Peak data was exported as a TOF list and the above steps were repeated individually, for the +20, 21, 22, 23, 24, and 25 charge states.
The masses and peak intensities of KRAS G12C protein species were measured using a Dionex RSLCnano system (Thermo Scientific) connected to a Q Exactive Plus mass spectrometer (Thermo Scientific).
[…] of sample was each loaded onto a Aeris™ 3.6 μm WIDEPORE C4 200 Å, LC Column 50×2.1 mm column maintained at 40° C. at a flow rate of 600 μL/min with 20% Solvent A (0.1% formic acid in H2O) and […] (0.1% formic acid in acetonitrile). The liquid chromatography conditions were 20% solvent B for 1 minute, 20% to 60% solvent B for 1.5 minutes, 60% to 90% solvent for 0.5 minute, 90% solvent B for 0.2 minute, 90% to 20% solvent B for 0.2 minute, and then equilibrated for 1.6 minutes before the following sample injection. The flow rate was maintained at 600 μL/min throughout the sample analysis.
The mass spectrometer was operated in profile mode at a resolution of 17500, 5 microscans, using 50 msec max injection time and an AGC target of 1×10^6, and a full mass range from 800-1850 m/z was recorded. The HCD trapping gas was optimized for maximum sensitivity for intact proteins. […]

**Q.** How did the Binding % turn out when `C=CC(=O)N1C[C@H](C)N(c2nc(OCCN3CCOCC3)nc3c(F)c(-c4c(C)ccc5[nH]nc(C6CC6)c45)c(Cl)cc23)C[C@H]1C` (atropisomer, axis not shown) [Compound 113, 1-((2R,5S)-4-((R)-6-chloro-7-(3-cyclopropyl-5-methyl-1H-indazol-4-yl)-8-fluoro-2-(2-morpholinoethoxy)quina-zolin-4-yl)-2,5-dimethylpiperazin-1-yl)prop-2-en-1-one] was run?
**A.** Its Binding % is “++ (++ indicates binding activity from 50 to 80%)”.

**Q.** For `C=CC(=O)N1C[C@H](C)N(c2nc(OCCN3CCC(F)(F)C3)nc3c(F)c(-c4c(C)ccc5[nH]nc(C6CC6)c45)c(Cl)cc23)C[C@H]1C` (atropisomer, axis not shown) [Compound 116, 1-((2R,5S)-4-((S)-6-chloro-7-(3-cyclopropyl-5-methyl-1H-indazol-4-yl)-2-(2-(3,3-difluoropyrrolidin-1-y)ethoxy)-8-fluoroquinazolin-4-yl)-2,5-dimethylpiperazin-1-yl)prop-2-en-1-one], which Binding % is on record?
**A.** The Binding % was “+ (+ indicates binding activity greater than 0% and up to 50%)”.

**Q.** How did the Binding % turn out when `C=CC(=O)N1C[C@H](C)N(c2nc(OCCN3CCC(F)(F)C3)nc3c(F)c(-c4c(C)ccc5[nH]nc(C6CC6)c45)c(Cl)cc23)C[C@H]1C` (atropisomer, axis not shown) [Compound 117, 1-((2R,5S)-4-((R)-6-chloro-7-(3-cyclopropyl-5-methyl-1H-indazol-4-yl)-2-(2-(3,3-difluoropyrrolidin-1-yl)ethoxy)-8-fluoroquinazolin-4-yl)-2,5-dimethylpiperazin-1-yl)prop-2-en-1-one] was run?
**A.** The Binding % was “+++ (+++ indicates binding activity greater than 80%)”.

**Q.** Which Binding % does the source give for `C=CC(=O)N1C[C@H](C)N(c2nc(OCCN3CC(F)(F)C3)nc3c(F)c(-c4c(C)ccc5[nH]nc(C6CC6)c45)c(Cl)cc23)C[C@H]1C` (atropisomer, axis not shown) [Compound 121, 1-((2R,5S)-4-((S)-6-chloro-7-(3-cyclopropyl-5-methyl-1H-indazol-4-yl)-2-(2-(3,3-difluoroazetidin-1-yl)ethoxy)-8-fluoroquinazolin-4-yl)-2,5-dimethylpiperazin-1-yl)prop-2-en-1-one] here?
**A.** Its Binding % is “+ (+ indicates binding activity greater than 0% and up to 50%)”.

**Q.** With `C=CC(=O)N1C[C@H](C)N(c2nc(OCCN3CC(F)(F)C3)nc3c(F)c(-c4c(C)ccc5[nH]nc(C6CC6)c45)c(Cl)cc23)C[C@H]1C` (atropisomer, axis not shown) [Compound 122, 1-((2R,5S)-4-((R)-6-chloro-7-(3-cyclopropyl-5-methyl-1H-indazol-4-yl)-2-(2-(3,3-difluoroazetidin-1-yl)ethoxy)-8-fluoroquinazolin-4-yl)-2,5-dimethylpiperazin-1-yl)prop-2-en-1-one] as the compound, how does the Binding % read?
**A.** Its Binding % is “+++ (+++ indicates binding activity greater than 80%)”.

**Q.** How did the Binding % turn out when `C=CC(=O)N1C[C@H](C)N(c2nc(N3CC(N(C)C)C3)nc3c(F)c(-c4c(C)ccc5cnn(C)c45)c(Cl)cc23)C[C@H]1C` (atropisomer, axis not shown) [Compound 131, 1-((2R,5S)-4-((S)-6-chloro-7-(1,6-dimethyl-1H-indazol-7-yl)-2-(3-(dimethylamino)azetidin-1-yl)-8-fluoroquinazolin-4-yl)-2,5-dimethylpiperazin-1-yl)prop-2-en-1-one] was run?
**A.** Its Binding % is “+ (+ indicates binding activity greater than 0% and up to 50%)”.

**Q.** With `C=CC(=O)N1[C@H](C)CN(c2nc(N3CC(N(C)C)C3)nc3c(F)c(-c4c(C)ccc5[nH]nc(C6CC6)c45)c(Cl)cc23)C[C@@H]1C` (atropisomer, axis not shown) [Compound 133, 1-((2S,6R)-4-((S)-6-chloro-7-(3-cyclopropyl-5-methyl-1H-indazol-4-yl)-2-(3-(dimethylamino)azetidin-1-yl)-8-fluoroquinazolin-4-yl)-2,6-dimethylpiperazin-1-yl)prop-2-en-1-one] as the compound, how does the Binding % read?
**A.** The Binding % was “+ (+ indicates binding activity greater than 0% and up to 50%)”.
